Data published in patent US11014891B2, “Reduction-triggered antibacterial sideromycins” (priority 2013, dated 2021).

What was measured:
Assay in all cases: agar diffusion antibacterial susceptibility assay
[1] = tested on: B. subtilis ATCC 6633; assay type: cell-based, Bacillus subtilis; settings: ciprofloxacin in H2O, concentration per footnote mark c
Description: (§1) Representative Gram-positive strains included Bacillus subtilis, Staphylococcus aureus and Micrococcus luteus. The Gram-negative strains studied included Pseudomonas aeruginosa (a wild type K799/wt and a penetration mutant strain K799/61), Escherichia coli, and Acinetobacter baumannii.

[2] = tested on: S. aureus SG 511; assay type: cell-based, Staphylococcus aureus; settings: ciprofloxacin in H2O, concentration per footnote mark b
Description: as §1

[3] = tested on: M. luteus ATCC 10240; assay type: cell-based, Micrococcus luteus; settings: ciprofloxacin in H2O, concentration per footnote mark b
Description: as §1

[4] = tested on: E. coli X580; assay type: cell-based, Escherichia coli; settings: ciprofloxacin in H2O, concentration per footnote mark d
Description: as §1

[5] = tested on: A. baumannii ATCC 17961; assay type: cell-based, Acinetobacter baumannii; settings: ciprofloxacin in H2O, concentration per footnote mark b; 100 μM 2,2′-bipyridine
Description: The siderophore-ciprofloxacin conjugates 13 and 23 were first evaluated for their ability to inhibit the growth of bacteria using the agar well diffusion test. Representative Gram-positive strains included Bacillus subtilis, Staphylococcus aureus and Micrococcus luteus. The Gram-negative strains studied included Pseudomonas aeruginosa (a wild type K799/wt and a penetration mutant strain K799/61), Escherichia coli, and Acinetobacter baumannii.

Q: How did the “Diameter of growth inhibition zones” value [1] turn out when `O=C(O)c1cn(C2CC2)c2cc(N3CCNCC3)c(F)cc2c1=O` [Ciprofloxacin, ciprofloxacin] was run?
A: 28^c mm

Q: And the “Diameter of growth inhibition zones” value [2]?
A: 28^b mm

Q: What about the “Diameter of growth inhibition zones” value [3] of the same compound?
A: 12P^b

Q: What about the “Diameter of growth inhibition zones” value [4] of the same compound?
A: 31^d mm

Q: And the “Diameter of growth inhibition zones” value [5]?
A: 15p^b
